From EPA's ToxRefDB 2 come the findings set out here.

In data set [1] the test system is rat. To be noted: Prenatal developmental toxicity study, wistar, Oral, Gavage/Intubation, dose end: 15 GD.
Another data set concerns rabbit. The conditions noted are these: Sub-acute dermal toxicity, new zealand white, Topical, dose end: 21 day, group: systemic.
For data set [2], the system named is rat. To be noted: Subchronic oral toxicity in rodents, fischer, Feed, dose end: 13 week, group: systemic.
In data set [3] the test system is mouse. The conditions noted are these: Subchronic oral toxicity in rodents, b6c3f1, Feed, dose end: 13 week, group: systemic.
Data set [4] deals with mouse. The conditions noted are these: Carcinogenicity, b6c3f1, Oral, Feed, dose end: 103 week, group: systemic.
Data set [5] relates to rat. The conditions noted are these: Carcinogenicity, fischer, Oral, Feed, dose end: 103 week, group: systemic.
Data set [6] deals with mouse. To be noted: Subchronic oral toxicity in rodents, b6c3f1, Water, dose end: 13 week, group: systemic.
Data set [7] relates to mouse. The conditions noted are these: Subchronic oral toxicity in rodents, b6c3f1, Feed, dose end: 13 week, group: systemic. The source holds these as a separate data set.
Data set [8] relates to mouse. The conditions noted are these: Prenatal developmental toxicity study, cd1, Oral, Gavage/Intubation, dose end: 14 GD.
Data set [9] has as its system rat. To be noted: Subchronic oral toxicity in rodents, fischer, Feed, dose end: 13 week, group: systemic. This is another data set of the same source.
The test system of data set [10] is mouse. To be noted: Combined chronic toxicity/carcinogenicity; b6c3f1; Oral; Feed; dose end: 2 year; group: systemic; systemic / in life observation / body weight / body weight.
The test system of data set [11] is rat. The conditions noted are these: Prenatal developmental toxicity study, sprague dawley, Oral, Gavage/Intubation, dose end: 15 GD.
Data set [12] concerns rat. The conditions noted are these: Combined chronic toxicity/carcinogenicity, fischer, Oral, Feed, dose end: 2 year, group: systemic.
Data set [13] concerns mouse. To be noted: Prenatal developmental toxicity study, cd1, Oral, Gavage/Intubation, dose end: 15 GD.
Data set [14] relates to mouse. The conditions noted are these: Combined chronic toxicity/carcinogenicity; other; Oral; Feed; dose end: 365 day; group: systemic; systemic / pathology gross / full gross necropsy / lymphoma malignant.
Data set [15] deals with rat. To be noted: Combined chronic toxicity/carcinogenicity; fischer; Oral; Feed; dose end: 365 day; group: systemic; systemic / pathology gross / full gross necropsy / adenoma.
Where [16] appears, read: group: developmental, developmental / developmental malformation / eye / anophthalmia + developmental / developmental malformation / eye / microphthalmia + ….
The mark [17] stands for this setting: group: maternal, systemic / in life observation / body weight / body weight gain + systemic / in life observation / clinical signs / labored respiration.
Setting [18] is: group: maternal, systemic / in life observation / body weight / body weight gain + systemic / in life observation / clinical signs / labored respiration + ….
Setting [19] is: systemic / in life observation / clinical signs / erythema.
Setting [20] is: systemic / in life observation / clinical signs / erythema + systemic / in life observation / body weight / body weight + systemic / in life….
Setting [21] is: systemic / in life observation / body weight / body weight + systemic / pathology microscopic / kidney / pigmentation + systemic / in life ….
The mark [22] stands for this setting: systemic / pathology microscopic / kidney / hemosiderosis + systemic / pathology microscopic / liver / hemosiderosis + systemic / pathology ….
[23] abbreviates: systemic / in life observation / body weight / body weight.
[24] abbreviates: systemic / pathology microscopic / liver / basophilic focus + systemic / pathology microscopic / liver / eosinophilic focus + systemic / ….
Where [25] appears, read: systemic / pathology microscopic / liver / hyperplasia + systemic / pathology microscopic / liver / basophilic focus + systemic / pathology ….
[26] abbreviates: systemic / in life observation / body weight / body weight + systemic / in life observation / clinical signs / emaciation + systemic / in ….
[27] abbreviates: systemic / pathology microscopic / nose / degeneration.
Setting [28] is: systemic / in life observation / body weight / body weight + systemic / in life observation / clinical signs / fur (altered appearance) + ….
Setting [29] is: group: developmental, systemic / in life observation / body weight / fetal weight.
The mark [30] stands for this setting: group: developmental, systemic / in life observation / body weight / fetal weight + developmental / developmental malformation / mouth / jaw / cleft palate.
[31] abbreviates: group: maternal, systemic / in life observation / body weight / body weight gain.
Setting [32] is: group: maternal, systemic / in life observation / body weight / body weight gain + systemic / in life observation / body weight / body weight + systemic / in….
The mark [33] stands for this setting: systemic / in life observation / body weight / body weight + systemic / in life observation / clinical signs / aggressive behavior + ….
The mark [34] stands for this setting: group: developmental, developmental / developmental malformation / kidney / hydronephrosis + developmental / developmental malformation / ureter / hydroureter + ….
[35] abbreviates: group: maternal, systemic / in life observation / body weight / body weight + systemic / in life observation / body weight / body weight gain + systemic / in….
Where [36] appears, read: systemic / pathology microscopic / liver / granuloma.
Where [37] appears, read: systemic / pathology microscopic / liver / granuloma + systemic / pathology microscopic / pituitary gland / adenoma.
The mark [38] stands for this setting: group: developmental, developmental / developmental malformation / mouth / jaw / cleft palate + systemic / in life observation / body weight / fetal weight.
[39] abbreviates: group: maternal, systemic / in life observation / body weight / body weight gain + systemic / in life observation / body weight / body weight + systemic / ….

Usually LOAEL stands for the lowest tested level that showed an adverse finding. One may read the NOAEL as the highest dose or exposure tested at which no adverse effect was seen. As to `Cc1cc(O)ccc1Cl` [4-Chloro-3-methylphenol], the LEL is 300 mg/kg/day with rat [1] (setting [16]), 100 mg/kg/day in the data set on rat [1] (setting [17]) and 10 mg/kg/day in the data set on rabbit (setting [20]). For the same compound, the lowest-observed-adverse-effect level (LOAEL) is 300 mg/kg/day in the data set with rat [1] (setting [16]), 100 mg/kg/day in the data set on rat [1] (setting [17]) and 10 mg/kg/day in the data set on rabbit (setting [19]). The NEL is 100 mg/kg/day with rat [1] (setting [16]), 30 mg/kg/day in the data set with rat [1] (setting [18]) and less than 10 mg/kg/day in the data set on rabbit (setting [20]). In addition, the NOAEL in the data set on rat [1] (setting [16]) was 100 mg/kg/day; in the data set on rat [1] (setting [18]) it was 30 mg/kg/day; in the data set on rabbit (setting [19]), less than 10 mg/kg/day.
On to `Oc1ccc2ccccc2c1N=Nc1ccccc1` [C.I. Solvent Yellow 14], for which the NEL in the data set on rat [2] (setting [21]) is 12.5 mg/kg/day; in the data set on mouse [3] (setting [22]), 75 mg/kg/day; with mouse [4] (setting [23]) it was less than 75 mg/kg/day; in the data set with rat [5] (setting [25]) it was less than 12.5 mg/kg/day. Also, the NOAEL in the data set on rat [2] (setting [21]) was 25 mg/kg/day; with mouse [3] (setting [22]), 150 mg/kg/day; in the data set with mouse [4] (systemic / in life observation / body weight / body weight + systemic / in life observation / body weight / body weight gain), 75 mg/kg/day; in the data set with rat [5] (setting [24]), 12.5 mg/kg/day. Moreover, the lowest-observed-adverse-effect level (LOAEL) in the data set on rat [2] (systemic / in life observation / body weight / body weight + systemic / pathology microscopic / kidney / pigmentation + systemic / pathology…) turned out to be 50 mg/kg/day; in the data set with mouse [3] (setting [22]), 300 mg/kg/day; in the data set on mouse [4] (setting [23]), 150 mg/kg/day; with rat [5] (setting [24]) it was 25 mg/kg/day. Moreover, the LEL is 25 mg/kg/day in the data set on rat [2] (systemic / pathology microscopic / kidney / pigmentation), 150 mg/kg/day in the data set on mouse [3] (systemic / pathology microscopic / spleen / hemosiderosis), 75 mg/kg/day in the data set with mouse [4] (setting [23]) and 12.5 mg/kg/day with rat [5] (setting [25]).
On to `ON=C1CCCCC1` [Cyclohexanone oxime], for which, in the data set with mouse [6] (setting [26]), the lowest observed adverse effect level (LOAEL) is greater than 1150 mg/kg/day and the no-observed-adverse-effect level (NOAEL) is no less than 1150 mg/kg/day. Further, in the data set on mouse [6] (setting [27]), the LEL stood at 132 mg/kg/day and the NEL is less than 132 mg/kg/day.
For the compound `CN(C)CCOC(c1ccccc1)c1ccccc1.Cl` [Diphenhydramine hydrochloride], the LOAEL was 93.8 mg/kg/day in the data set on mouse [7] (setting [23]); greater than 200 mg/kg/day with mouse [8] (setting [30]); greater than 200 mg/kg/day with mouse [8] (setting [32]); 31.3 mg/kg/day in the data set on rat [9] (setting [23]); 46 mg/kg/day with mouse [10]; greater than 100 mg/kg/day in the data set with rat [11] (setting [34]). In addition, the LOAEL was greater than 100 mg/kg/day in the data set on rat [11] (setting [35]), greater than 15 mg/kg/day in the data set on rat [12] (setting [37]), greater than 160 mg/kg/day in the data set with mouse [13] (setting [38]) and greater than 160 mg/kg/day in the data set on mouse [13] (setting [39]). The LEL in the data set with mouse [7] (setting [28]) was 93.8 mg/kg/day; in the data set on mouse [8] (setting [29]), 80 mg/kg/day; in the data set on mouse [8] (setting [31]) it was 80 mg/kg/day; in the data set with rat [9] (systemic / pathology microscopic / liver / vacuolization cytoplasmic), 15.7 mg/kg/day; in the data set with mouse [10] it was 21 mg/kg/day; in the data set with rat [11] (setting [34]), 100 mg/kg/day. Besides, the LEL with rat [11] (setting [35]) is 100 mg/kg/day; in the data set on rat [12] (setting [36]), 7 mg/kg/day; with mouse [13] (group: developmental, developmental / developmental malformation / mouth / jaw / cleft palate) it was 80 mg/kg/day; in the data set on mouse [13] (setting [31]) it was 80 mg/kg/day. The NEL was 47 mg/kg/day in the data set on mouse [7] (setting [28]); less than 80 mg/kg/day in the data set with mouse [8] (setting [29]); less than 80 mg/kg/day with mouse [8] (setting [31]); 7.8 mg/kg/day with rat [9] (setting [33]); less than 21 mg/kg/day in the data set on mouse [10]; 50 mg/kg/day in the data set on rat [11] (setting [34]). Also, the NEL in the data set on rat [11] (setting [35]) is 50 mg/kg/day; with rat [12] (setting [36]), less than 7 mg/kg/day; in the data set with mouse [13] (setting [38]), 40 mg/kg/day; with mouse [13] (setting [39]), 40 mg/kg/day. The NOAEL in the data set with mouse [7] (setting [28]) is 47 mg/kg/day; with mouse [8] (setting [30]), no less than 200 mg/kg/day; with mouse [8] (setting [32]), no less than 200 mg/kg/day; in the data set with rat [9] (setting [33]) it was 15.7 mg/kg/day; with mouse [10], 21 mg/kg/day; in the data set with rat [11] (setting [34]), no less than 100 mg/kg/day. The NOAEL with rat [11] (setting [35]) was no less than 100 mg/kg/day; with rat [12] (setting [37]), no less than 15 mg/kg/day; with mouse [13] (setting [38]) it was no less than 160 mg/kg/day; in the data set on mouse [13] (setting [39]), no less than 160 mg/kg/day.
As to `NC(N)=O` [Urea], in the data set with mouse [14], the LEL is 675 mg/kg/day, the lowest-observed-adverse-effect level (LOAEL) was greater than 675 mg/kg/day, the NEL is less than 675 mg/kg/day and the NOAEL is no less than 675 mg/kg/day. Besides, in the data set on rat [15], the LEL is 225 mg/kg/day, the lowest-observed-adverse-effect level (LOAEL) is greater than 225 mg/kg/day, the NEL is less than 225 mg/kg/day and the no observed adverse effect level (NOAEL) was no less than 225 mg/kg/day.
